# Measurements published in ChEMBL document CHEMBL1697692, “Developing structure-activity relationships for the prediction of hepatotoxicity” (Chem Res Toxicol, 2010).
# Numbered stars: 1 amine (or outer) side, 2 acyl side, 3 side chain; on linkers, the order of the positions; unused ones are H or OH. Bridge positions count the residues as written; N and C are the ends. Square brackets hold non-standard residues; d marks the D form. Peptide text beside a SMILES is read from it. * marks the point of attachment. ξ: configuration not given here. X1 = N=C1NCCC([C@H](N[*:1])C(=O)[*:2])N1; ΔAla(Z-3-ureido) = NC(=O)N/C=C(\N)C(=O)O; ξβ3hOrn = NCCCC(N)CC(=O)*; Dap = NC[C@H](N)C(=O)O
# System: Hepatotoxicity
# Test: Literature-mined public compounds from Greene et al multi-species hepatotoxicity modelling dataset
row,Compound,Hepatotoxicity
1,CCCCNc1cc(C(=O)O)cc(S(N)(=O)=O)c1Oc1ccccc1 [BUMETANIDE],HH: Evidence of human hepatotoxicity
2,CCCCN1CCCCC1C(=O)Nc1c(C)cccc1C (configuration not stated) [BUPIVACAINE],NE: No evidence of hepatotoxicity in any species
3,CC(NC(C)(C)C)C(=O)c1cccc(Cl)c1.Cl (configuration not stated) [BUPROPION HYDROCHLORIDE],WE: Weak evidence (<10 case reports) of human hepatotoxicity
4,O=C1CC2(CCCC2)CC(=O)N1CCCCN1CCN(c2ncccn2)CC1 [BUSPIRONE],NE: No evidence of hepatotoxicity in any species
5,CS(=O)(=O)OCCCCOS(C)(=O)=O [BUSULFAN],HH: Evidence of human hepatotoxicity
6,Clc1ccc(CCC(Cn2ccnc2)Sc2c(Cl)cccc2Cl)cc1.O=[N+]([O-])O (configuration not stated) [BUTOCONAZOLE NITRATE],NE: No evidence of hepatotoxicity in any species
7,Cc1cc(C(C)(C)C)c(O)c(C(C)(C)C)c1 [BUTYLATED HYDROXYTOLUENE],AH: Evidence for animal hepatotoxicity but not tested in humans
8,Cn1c(=O)c2c(ncn2C)n(C)c1=O [CAFFEINE],NE: No evidence of hepatotoxicity in any species
9,C=C1CC[C@H](O)C/C1=C/C=C1\CCC[C@]2(C)[C@@H]([C@H](C)CCCC(C)(C)O)CC[C@@H]12.O [CALCIFEDIOL],HH: Evidence of human hepatotoxicity
10,CC(C)(CO)[C@@H](O)C(=O)NCCC(=O)[O-].CC(C)(CO)[C@@H](O)C(=O)NCCC(=O)[O-].[Ca+2] [CALCIUM PANTOTHENATE],NE: No evidence of hepatotoxicity in any species
11,C[C@@H]1NC(=O)[C@@H](N)CNC(=O)[C@H](C2CCNC(=N)N2)NC(=O)/C(=C/NC(N)=O)NC(=O)[C@H](CNC(=O)CC(N)CCCN)NC1=O.N=C1NCCC([C@@H]2NC(=O)/C(=C/NC(N)=O)NC(=O)[C@H](CNC(=O)CC(N)CCCN)NC(=O)[C@H](CO)NC(=O)[C@@H](N)CNC2=O)N1.O=S(=O)(O)O.O=S(=O)(O)O (stereo partly drawn) [CAPREOMYCIN SULFATE] (H-[Dap]S[Dap](ξβ3hOrn)[ΔAla(Z-3-ureido)][X1]; lactam 1-C),NE: No evidence of hepatotoxicity in any species
12,COc1cc(CNC(=O)CCCC/C=C/C(C)C)ccc1O [CAPSAICIN],NE: No evidence of hepatotoxicity in any species
13,C[C@H](CS)C(=O)N1CCC[C@H]1C(=O)O [CAPTOPRIL],HH: Evidence of human hepatotoxicity
14,NC(=O)N1c2ccccc2C=Cc2ccccc21 [CARBAMAZEPINE],HH: Evidence of human hepatotoxicity
15,COC(=O)Nc1nc2ccccc2[nH]1 [CARBENDAZIM],AH: Evidence for animal hepatotoxicity but not tested in humans
16,CC1(C)[C@@H](OC(=O)CCC(=O)[O-])CC[C@]2(C)[C@H]3C(=O)C=C4[C@@H]5C[C@@](C)(C(=O)[O-])CC[C@]5(C)CC[C@@]4(C)[C@]3(C)CC[C@@H]12.[Na+].[Na+] [CARBENOXOLONE SODIUM],NE: No evidence of hepatotoxicity in any species
17,C[C@@](Cc1ccc(O)c(O)c1)(NN)C(=O)O.O [CARBIDOPA],NE: No evidence of hepatotoxicity in any species
18,ClC(Cl)(Cl)Cl [CARBON TETRACHLORIDE],HH: Evidence of human hepatotoxicity
19,CC1=C(C(=O)O)N2C(=O)[C@@H](NC(=O)[C@H](N)c3ccc(O)cc3)[C@H]2SC1 [CEFADROXIL],HH: Evidence of human hepatotoxicity

row,Compound,Hepatotoxicity
1,Cn1nnnc1SCC1=C(C(=O)[O-])N2C(=O)[C@@H](NC(=O)[C@H](O)c3ccccc3)[C@H]2SC1.[Na+] [CEFAMANDOLE SODIUM],HH: Evidence of human hepatotoxicity
2,CCN1CCN(C(=O)N[C@@H](C(=O)N[C@@H]2C(=O)N3C(C(=O)O)=C(CSc4nnnn4C)CS[C@H]23)c2ccc(O)cc2)C(=O)C1=O.O.O [CEFOPERAZONE DIHYDRATE],NE: No evidence of hepatotoxicity in any species
3,CO[C@@]1(NC(=O)C2SC(=C(C(N)=O)C(=O)O)S2)C(=O)N2C(C(=O)O)=C(CSc3nnnn3C)CS[C@@H]21 (some centres not stated) [CEFOTETAN],NE: No evidence of hepatotoxicity in any species
4,CN(C)CCn1nnnc1SCC1=C(C(=O)O)N2C(=O)[C@@H](NC(=O)Cc3csc(N)n3)[C@H]2SC1.Cl.Cl [CEFOTIAM HYDROCHLORIDE],HH: Evidence of human hepatotoxicity
5,CO[C@@]1(NC(=O)Cc2cccs2)C(=O)N2C(C(=O)O)=C(COC(N)=O)CS[C@@H]21 [CEFOXITIN],HH: Evidence of human hepatotoxicity
6,CC(C)(O/N=C(\C(=O)N[C@@H]1C(=O)N2C(C(=O)[O-])=C(C[n+]3ccccc3)CS[C@H]12)c1csc(N)n1)C(=O)O [CEFTAZIDIME],WE: Weak evidence (<10 case reports) of human hepatotoxicity
7,O=C(Cc1cccs1)N[C@@H]1C(=O)N2C(C(=O)[O-])=C(C[n+]3ccccc3)CS[C@H]12 [CEPHALORIDINE],AH: Evidence for animal hepatotoxicity but not tested in humans
8,CC(=O)OCC1=C(C(=O)[O-])N2C(=O)[C@@H](NC(=O)Cc3cccs3)[C@H]2SC1.[Na+] [CEPHALOTHIN SODIUM],HH: Evidence of human hepatotoxicity
9,CC(=O)OCC1=C(C(=O)[O-])N2C(=O)[C@@H](NC(=O)CSc3ccncc3)[C@H]2SC1.[Na+] [CEPHAPIRIN SODIUM],NE: No evidence of hepatotoxicity in any species
10,CC1=C(C(=O)O)N2C(=O)[C@@H](NC(=O)[C@H](N)C3=CCC=CC3)[C@H]2SC1 [CEPHRADINE],NE: No evidence of hepatotoxicity in any species
11,COCc1c(C(C)C)nc(C(C)C)c(/C=C/[C@@H](O)C[C@@H](O)CC(=O)O)c1-c1ccc(F)cc1 [CERIVASTATIN],HH: Evidence of human hepatotoxicity
12,C[C@H](CCC(=O)O)[C@H]1CC[C@H]2[C@@H]3[C@H](O)C[C@@H]4C[C@H](O)CC[C@]4(C)[C@H]3CC[C@]12C [CHENODIOL],HH: Evidence of human hepatotoxicity
13,CCCCCCCCCCCCCCCC(=O)OC[C@@H](NC(=O)C(Cl)Cl)[C@H](O)c1ccc([N+](=O)[O-])cc1 [CHLORAMPHENICOL PALMITATE],HH: Evidence of human hepatotoxicity
14,ClC(Cl)Cl [CHLOROFORM],AH: Evidence for animal hepatotoxicity but not tested in humans
15,CCN(CC)CCCC(C)Nc1ccnc2cc(Cl)ccc12.O=P(O)(O)O.O=P(O)(O)O (configuration not stated) [CHLOROQUINE PHOSPHATE],WE: Weak evidence (<10 case reports) of human hepatotoxicity
16,CN(C)CCC(c1ccc(Cl)cc1)c1ccccn1.O=C(O)/C=C\C(=O)O (configuration not stated) [CHLORPHENIRAMINE MALEATE],HH: Evidence of human hepatotoxicity
17,CN(C)CCCN1c2ccccc2Sc2ccc(Cl)cc21 [CHLORPROMAZINE],HH: Evidence of human hepatotoxicity
18,CCCNC(=O)NS(=O)(=O)c1ccc(Cl)cc1 [CHLORPROPAMIDE],HH: Evidence of human hepatotoxicity
19,CN(C)[C@@H]1C(O)=C(C(N)=O)C(=O)[C@@]2(O)C(O)=C3C(=O)c4c(O)ccc(Cl)c4[C@@](C)(O)[C@H]3C[C@@H]12.Cl [CHLORTETRACYCLINE HYDROCHLORIDE],HH: Evidence of human hepatotoxicity

row,Compound,Hepatotoxicity
1,Cc1cc(C2CCCCC2)n(O)c(=O)c1 [CICLOPIROX],NE: No evidence of hepatotoxicity in any species
2,CC1(COc2ccc(CC3SC(=O)NC3=O)cc2)CCCCC1 (configuration not stated) [CIGLITAZONE],HH: Evidence of human hepatotoxicity
3,CN/C(=N/CCSCc1nc[nH]c1C)NC#N [CIMETIDINE],WE: Weak evidence (<10 case reports) of human hepatotoxicity
4,O=C(O)c1cc(-c2ccccc2)nc2ccccc12 [CINCHOPHEN],HH: Evidence of human hepatotoxicity
5,CC(C)(Oc1ccc(C2CC2(Cl)Cl)cc1)C(=O)O (configuration not stated) [CIPROFIBRATE],HH: Evidence of human hepatotoxicity
6,COc1cc(N)c(Cl)cc1C(=O)NC1CCN(CCCOc2ccc(F)cc2)CC1OC (configuration not stated) [CISAPRIDE],NE: No evidence of hepatotoxicity in any species
7,CN(C)CCCC1(c2ccc(F)cc2)OCc2cc(C#N)ccc21 (configuration not stated) [CITALOPRAM],WE: Weak evidence (<10 case reports) of human hepatotoxicity
8,C[N+](C)(C)CCOP(=O)(O)OP(=O)([O-])OC[C@H]1O[C@@H](n2ccc(N)nc2=O)[C@H](O)[C@@H]1O [CITICOLINE],NE: No evidence of hepatotoxicity in any species
9,Nc1nc(Cl)nc2c1ncn2[C@H]1C[C@H](O)[C@@H](CO)O1 [CLADRIBINE],NE: No evidence of hepatotoxicity in any species
10,CC[C@H]1OC(=O)[C@H](C)[C@@H](O[C@H]2C[C@@](C)(OC)[C@@H](O)[C@H](C)O2)[C@H](C)[C@@H](O[C@@H]2O[C@H](C)C[C@H](N(C)C)[C@H]2O)[C@](C)(OC)C[C@@H](C)C(=O)[C@H](C)[C@@H](O)[C@]1(C)O [CLARITHROMYCIN],HH: Evidence of human hepatotoxicity
11,CN1CCC[C@@H]1CCO[C@](C)(c1ccccc1)c1ccc(Cl)cc1.O=C(O)/C=C/C(=O)O [CLEMASTINE FUMARATE],NE: No evidence of hepatotoxicity in any species
12,NC1CCN(c2c(F)cc3c(=O)c(C(=O)O)cn(C4CC4)c3c2Cl)C1 (configuration not stated) [CLINAFLOXACIN],WE: Weak evidence (<10 case reports) of human hepatotoxicity
13,CCC[C@@H]1C[C@@H](C(=O)N[C@@H]([C@H]2O[C@H](SC)[C@H](O)[C@@H](O)[C@H]2O)[C@H](C)Cl)N(C)C1.Cl [CLINDAMYCIN HYDROCHLORIDE],HH: Evidence of human hepatotoxicity
14,CCOC(=O)C(C)(C)Oc1ccc(Cl)cc1 [CLOFIBRATE],HH: Evidence of human hepatotoxicity
15,CN(C)CCCN1c2ccccc2CCc2ccc(Cl)cc21 [CLOMIPRAMINE],HH: Evidence of human hepatotoxicity
16,Cl.Clc1cccc(Cl)c1NC1=NCCN1 [CLONIDINE HYDROCHLORIDE],HH: Evidence of human hepatotoxicity
17,Clc1ccccc1C(c1ccccc1)(c1ccccc1)n1ccnc1 [CLOTRIMAZOLE],WE: Weak evidence (<10 case reports) of human hepatotoxicity
18,Cc1onc(-c2ccccc2Cl)c1C(=O)N[C@@H]1C(=O)N2[C@@H]1SC(C)(C)[C@@H]2C(=O)[O-].O.[Na+] [CLOXACILLIN SODIUM],HH: Evidence of human hepatotoxicity
19,CN1CCN(C2=Nc3cc(Cl)ccc3Nc3ccccc32)CC1 [CLOZAPINE],HH: Evidence of human hepatotoxicity
